# Values joined by “and” are separate entries in the source; they are usually repeats but may differ in a detail not shown here. Equal values may be shown once.
# Assays:
# Format in all cases: cell-based
# Cercospora beticola = assay: in vitro-Test with fungal microorganisms, Method B (tables C11-C20); details: single compound
# How it was run: (§1)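 Efficacy, relative to untreated control (0% = growth as in control, 100% = no growth), from photometric growth measurement at 600 nm after 3 to 7 days at 20° C., 85% relative humidity. Compound applied in methanol+emulsifier, solvent evaporated, then spore/mycelium-amended liquid medium added.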
# Fusarium culmorum = assay: in vitro-Test with fungal microorganisms, Method B (tables G5-G15)
# How it was run: as §1
# Botrytis cinerea = assay: in vitro-Test with fungal microorganisms, Method B (tables B15-B18)
# How it was run: as §1
# Diaporthe citri = assay: in vitro-Test with fungal microorganisms, Method B (tables F12-F15)
# Method: (§2) Example: In Vitro-Test with Fungal Microorganisms
# (§3) Wells of 96-well microtiter plates are filled with 30 μl of a preparation of test compound or compound combination in methanol+emulsifier alkylaryl-polyglycol-ether. Thereafter, the solvent is evaporated in a hood. At the next step, 200 μl of liquid growth medium is given, that has been amended with an appropriate concentration of spores or mycelium suspension of the test fungus.
# (§4) With the aid of a photometer, the extinction in all wells is measured at the wavelength of 600 nm.
# (§5) The microtiter plates are incubated for 3 to 7 days at 20° C. and 85% relative humidity. After the incubation inhibition of growth is determined photometrically. Efficacy is calculated in relation to the untreated control, 0% efficacy means fungal growth as high as in untreated control while 100% efficacy means no fungal growth is measured.
# (§6) The data in tables A1 to A12, B1 to B14, C1 to C10, D1 to D8, E1 to E8, F1 to F11, G1 to G4, H1 to H4 and I1 to I5 were collected according to Method A. The data in tables A13 to A22, B15 to B18, C11 to C20, E9 to E16, F12 to F15, G5 to G15, H5 to H8, I6 to I11 and J1 to J11 were collected according to Method B.
# Cordana musae = assay: in vitro-Test with fungal microorganisms, Method B (tables E9-E16); details: single active
# How it was run: as §1
# Colletotrichum coccodes = assay: in vitro-Test with fungal microorganisms, Method B (tables J1-J11)
# How it was run: as §1
# Alternaria alternata = assay: in vitro-Test with fungal microorganisms, Method B (tables A13-A22)
# How it was run: as §1
# Parastagonospora nodorum = assay: in vitro-Test with fungal microorganisms, Method B (tables H5-H8)
# Method: as §2, §3, §4, §5, §6
# [1] = test system: Ustilago segetum var. avenae; assay: in vitro-Test with fungal microorganisms, Method B (tables I6-I11); details: 0.2 ppm
# How it was run: as §1
# [2] = single active compound, 0.2 ppm
smiles,measurement,setting,value
"Cc1nn(C)c(F)c1C(=O)Nc1ccccc1C(C)CC(C)C (stereo not shown) [(2.017) penflufen, penflufen]",Efficacy %,Cercospora beticola; 1 ppm,0%
same,Efficacy,Fusarium culmorum; 0.04 ppm alone,4%
same,Efficacy,Fusarium culmorum; [2],10% and 2%
same,Efficacy,"Fusarium culmorum; single active compound, 1 ppm",11%
same,Efficacy,"Fusarium culmorum; single active compound, 5 ppm",11% and 8%
same,Efficacy %,Botrytis cinerea; 0.04 ppm alone,0%
same,Efficacy %,Botrytis cinerea; 5 ppm alone,70%
same,Efficacy,"Diaporthe citri; Table F15, 0.04 ppm alone",0%
same,Efficacy,"Diaporthe citri; Table F15, 0.2 ppm alone",2%
same,Efficacy,"Diaporthe citri; Table F15, 1 ppm alone",0%
same,Efficacy,"Diaporthe citri; Table F15, 5 ppm alone",3%
same,Efficacy,Cordana musae; 0.04 ppm,0%
same,Efficacy,Cordana musae; 0.2 ppm,0%
same,Efficacy,Cordana musae; 1 ppm,0%
same,Efficacy %,Colletotrichum coccodes; single active compound at 1 ppm,0%
same,Efficacy %,Colletotrichum coccodes; single active compound at 5 ppm,27%
same,Efficacy,Alternaria alternata; 0.2 ppm,22%
same,Efficacy,Alternaria alternata; 5 ppm,72%
same,Efficacy,Parastagonospora nodorum; 0.04 ppm,0%
same,Efficacy,Parastagonospora nodorum; 0.2 ppm,5%
"Cc1cccc(-n2nnn(C)c2=O)c1COc1ccn(-c2ccc(Cl)cc2)n1 [(3.030) metyltetraprole, metyltetraprole]",Efficacy %,Cercospora beticola; 0.04 ppm,100%
same,Efficacy %,Cercospora beticola; 0.2 ppm,100%
same,Efficacy,Fusarium culmorum; 0.2 ppm alone,13%
same,Efficacy,"Fusarium culmorum; single active compound, 0.008 ppm",7% and 0%
same,Efficacy,"Fusarium culmorum; single active compound, 0.04 ppm",8% and 0%
same,Efficacy,Fusarium culmorum; [2],6% and 5%
same,Efficacy,"Fusarium culmorum; single active compound, 1 ppm",8% and 2%
same,Efficacy %,Botrytis cinerea; 0.008 ppm alone,7%
same,Efficacy %,Botrytis cinerea; 0.04 ppm alone,11%
same,Efficacy %,Botrytis cinerea; 0.2 ppm alone,7%
same,Efficacy %,Botrytis cinerea; 1 ppm alone,33%
same,Efficacy %,[1],0%
same,Efficacy,"Diaporthe citri; Table F14, 0.2 ppm alone",86%
same,Efficacy,Cordana musae; 0.008 ppm,0%
same,Efficacy,Cordana musae; 0.04 ppm,0%
same,Efficacy,Cordana musae; 0.2 ppm,19%
same,Efficacy,Cordana musae; 1 ppm,70%
same,Efficacy %,Colletotrichum coccodes; single active compound at 0.04 ppm,0%
same,Efficacy %,Colletotrichum coccodes; single active compound at 0.2 ppm,1%
same,Efficacy,Alternaria alternata; 0.008 ppm,0%
same,Efficacy,Alternaria alternata; 1 ppm,87%
same,Efficacy,Parastagonospora nodorum; 0.04 ppm,38%
same,Efficacy,Parastagonospora nodorum; 1 ppm,84%

# Reference: patent US12653191B2, “Active compound combinations” (Bayer Aktiengesellschaft, priority 2020, dated 2026)
